Assay results published in US20100285611A1, “PHOTOBLEACHING RESISTANT PH SENSITIVE DYE NANOREACTORS WITH DUAL WAVELENGTH EMISSION” (priority 2009, published 2010).
Where two headings read alike, the source gives them in different places.

Assays:
[1] = at room temperature; cited from earlier work
[2] = pH dependent fluorescence emission spectra of cSNARF-1 (modified Henderson-Hasselbalch analysis); type: physicochemical
Protocol: Absorption spectra were obtained using a UV Mini 1240 spectrophotometer (Shimadzu Scientific Instruments, Columbia, Md.) in a 1-cm path length quartz cuvette. The total concentration of encapsulated cSNARF-1 in the suspensions was determined at pH 7 using the extinction coefficient of 27,000 L-mol-1-cm-1 at the absorbance maximum of 548 nm. Fluorescence spectra were obtained using a Cary Eclipse fluorescence spectrophotometer (Varian, Walnut Creek, Calif.) with excitation wavelength of 514 nm and collecting emissions over the range of 550 nm to 750 nm at room temperature. […] The pH was adjusted using 0.1 N HCl or NaOH, starting from pH 7 to either the higher or lower limit of pH and back. All spectra were corrected for dilution.
A more quantitative analyses of these changes in fluorescence intensity may be carried out using the modified Henderson-Hasselbalch equation. For a dye with dual wavelength emissions, the ratio of fluorescence intensity over a given pH range elucidates the dye's pKa as:
where Ri is the fluorescence intensity ratio of the two wavelengths (582 nm and 635 nm) at pHi, Rmin and Rmax are the minimum and maximum limiting values of Ri, respectively. The value of I(A)/I(B) is obtained from the emission intensities at 635 nm for the limiting acidic, I(A), and basic, I(B), pH regions. In practice, to elucidate the pKa of each sample, first the pH1/2 value, at which (Ri−Rmin)=(Rmax−Ri) or R1/2=(½) (Rmax+Rmin) was determined to make the second term of the right hand side of equation equal to zero. The value of pH1/2 was then subtracted by log(I(A)/I(B)) to estimate the pKa value.
To estimate the pH1/2 and I(A)/I(B) from the experiment, the fluorescence intensity changes at 635 nm and 582 nm, and their ratios were plotted against the pH values as shown in FIG. 4B. For elucidation of both pH1/2 and I(A)/I(B), it is important to note that well defined limiting intensities at both extreme ends of acidic and basic pHs must be available. Furthermore, the spectral changes shown in each of FIG. 4A should have a well defined isoemissive point to assure that the integrity of spectral chromophores is maintained throughout the entire pH range. Once pH1/2, Rmin, Rmax, and I(A)/I(B) are determined, the value for “c” may be estimated from the least squares fit of the equation to the experimental results shown as filled circles in FIG. 4B.

[3] = Stopped flow kinetics of fluorescence response to pH change; type: physicochemical
Protocol: The time dependent response of cSNARF-1 solution and nanoreactors to the pH change was measured at 20° C. using an RX2000 Stopped-Flow Mixing Accessory (Applied Photophysics Limited, Leatherhead, UK) attached to the Cary Eclipse fluorescence spectrophotometer. The mixing time of this system is reported to be 8 msec, and the response time of Eclipse is 1 msec. To estimate the response time of the nanoreactors, they were first adjusted to pH 10 then mixed with a 50 mM phosphate buffer solution at pH 2. By exciting cSNARF-1 at 514 nm during this process, the pH-responsive fluorescence change at 582 nm was recorded.

[4] = Photobleaching under 300 W Xenon lamp; type: physicochemical; details: after 100 minutes; 300 W Xenon lamp 15 cm away; DI water pH 9; 30° C.; 640 nm
Protocol: cSNARF-1 in DI water at pH 9 and the nanoreactors in the same solvent was placed into covered 1 cm-path length quartz cuvettes and kept at 30° C. using a circulating water bath while being continuously exposed to the emission of a 300 W Xenon lamp placed 15 cm away. […] The fluorescence intensity at 640 nm was recorded at 5 or 10 minute intervals.

[5] = solvent Water, excitation 514 nm

- Acidic peak ([2]; solvent 1.5% IgG sln): 584 nm
- Basic peak ([2]; solvent 1.5% IgG sln): 633 nm
- c ([2]; solvent 1.5% IgG sln): −0.78
- log{I[A]/I[B]} ([2]; solvent 1.5% IgG sln): −0.47
- pH 1/2 ([2]; solvent 1.5% IgG sln): 7.25
- pKa ([2]; solvent 1.5% IgG sln): 7.72
- pKa ([2]; solvent Water): 7.46
- log{I[A]/I[B]} ([2]; solvent Water, emission intensities at 635 nm, limiting acidic and basic pH): −0.31
- Acidic peak [2, 5]: 581 nm
- Basic peak [2, 5]: 633 nm
- pH 1/2 ([2]; solvent Water, excitation 514 nm, room temperature): 7.15
- c ([2]; solvent Water, least squares fit of Equation 1): −1.17
- loss of fluorescence intensity [4]: 30%
Substance: 5-(and-6)-Carboxy-seminaphthorhodafluor-1 [cSNARF-1]
- pKa [1]: 7.5
- time for change in fluorescence intensity (67%) ([3]; pH change from pH 10 to 5, average of three traces (FIG. 7 legend)): 175 ms
- time for 65% change in fluorescence intensity (t65%) ([3]; response to pH change, average of three traces, 20° C., excitation 514 nm, emission 582 nm): 175 ms
